± gives the expanded uncertainty stated by the source.
Test: cn = amount concentration of the nth substance listed, in mol/dm3
Conditions: 101 kPa, Liquid; for viscosity: Capillary tube (Ostwald / Ubbelohde) method; for mass density: Pycnometric method; for binary diffusion coefficient: Taylor dispersion method

Work on `OC[C@H]1O[C@@H]2O[C@H]3[C@H](O)[C@@H](O)[C@@H](O[C@H]4[C@H](O)[C@@H](O)[C@@H](O[C@H]5[C@H](O)[C@@H](O)[C@@H](O[C@H]6[C@H](O)[C@@H](O)[C@@H](O[C@H]7[C@H](O)[C@@H](O)[C@@H](O[C@H]8[C@H](O)[C@@H](O)[C@@H](O[C@H]9[C@H](O)[C@@H](O)[C@@H](O[C@H]1[C@H](O)[C@H]2O)O[C@@H]9CO)O[C@@H]8CO)O[C@@H]7CO)O[C@@H]6CO)O[C@@H]5CO)O[C@@H]4CO)O[C@@H]3CO` [γ-cyclodextrin] + O yielded a viscosity (298.15 K, c1 = 0.00186) of 0.9975 ± 0.0079 mPa·s, a viscosity (298.15 K, c1 = 0.004979) of 0.999 ± 0.0079 mPa·s and a viscosity (298.15 K, c1 = 0.007923) of 1.001 ± 0.008 mPa·s. The viscosity (298.15 K, c1 = 0.009981) was 1.002 ± 0.008 mPa·s, the mass density (298.15 K, c1 = 0.00186) was 896.2 ± 0.6 kg/m3 and the mass density (298.15 K, c1 = 0.004979) was 906.1 ± 0.6 kg/m3. The mass density (298.15 K, c1 = 0.007923) was 919.2 ± 0.61 kg/m3, the mass density (298.15 K, c1 = 0.009981) was 927 ± 0.62 kg/m3 and the binary diffusion coefficient (298.15 K, c1 = 0.002) was 3.57e-10 m2/s. For the same compound, the binary diffusion coefficient (298.15 K, c1 = 0.005) was 3.55e-10 m2/s, the binary diffusion coefficient (298.15 K, c1 = 0.008) was 3.53e-10 m2/s and the binary diffusion coefficient (298.15 K, c1 = 0.01) was 3.52e-10 m2/s. It also gave a viscosity (310.15 K, c1 = 0.00186) of 0.9938 ± 0.0079 mPa·s, a viscosity (310.15 K, c1 = 0.004979) of 0.9949 ± 0.0079 mPa·s and a viscosity (310.15 K, c1 = 0.007923) of 0.997 ± 0.0079 mPa·s. The viscosity (310.15 K, c1 = 0.009981) was 0.9984 ± 0.008 mPa·s, the mass density (310.15 K, c1 = 0.00186) was 697 ± 0.54 kg/m3 and the mass density (310.15 K, c1 = 0.004979) was 708.2 ± 0.55 kg/m3. The mass density (310.15 K, c1 = 0.007923) was 717.2 ± 0.57 kg/m3, the mass density (310.15 K, c1 = 0.009981) was 723.4 ± 0.56 kg/m3 and the binary diffusion coefficient (310.15 K, c1 = 0.002) was 4.8e-10 m2/s. The binary diffusion coefficient (310.15 K, c1 = 0.005) was 4.7e-10 m2/s, the binary diffusion coefficient (310.15 K, c1 = 0.008) was 4.61e-10 m2/s and the binary diffusion coefficient (310.15 K, c1 = 0.01) was 4.53e-10 m2/s.

Reference: the NIST ThermoML archive (doi:10.1021/je700598v)
